{
  "source": "patent US10190119B2",
  "about": "“Mitochondrial phosphate carrier targets for treating soft-tissue calcification” (THE BRIGHAM AND WOMEN'S HOSPITAL, INC., priority 2014, dated 2019)",
  "tested_on": "calcifying extracellular vesicles (EVs)",
  "experiment": "Aggregation of calcifying extracellular vesicles in a particle counting device",
  "details": "100 μM NEM, vesicles from smooth muscle cells cultured in calcifying conditions, cell-free, 37° C., FIG. 5",
  "method": "Calcification has been previously linked to aggregation of extracellular vesicles. Therefore, vesicles were collected from smooth muscle cells cultured in calcifying conditions and incubated in cell-free conditions at 37° C. within a particle counting device. […] Aggregation of calcifying vesicles was observed by a reduction in total particles counted from 8 h to 20 h of incubation, as shown in FIG. 5. […] Without wishing to be bound by theory, it is hypothesized that this reduction is due to the inhibition of phosphate carriers on the vesicles, which blocks phosphate transport into the vesicles, and in turn preventing mineral formation.",
  "data": [
    {"compound": "CCN1C(=O)C=CC1=O", "note": "[NEM, N-ethylmaleimide]", "values": [
      {"measurement": "reduction in total particles (vesicle counts) from 8 h to 20 h of incubation", "value": "mitigated the reduction in vesicle counts"}
    ]}
  ]
}
